Earlier results in patent publication US9636300B2, “Racecadotril lipid compositions” (JOHNSON & JOHNSON CONSUMER INC., priority 2013, dated 2017).

Conditions: room temperature conditions

Q: For `CC(=O)SCC(Cc1ccccc1)C(=O)NCC(=O)OCc1ccccc1` (stereo not shown) [Racecadotril], which water solubility is on record?
A: about 10 micrograms/ml
